# Source: patent US20120121540A1 (priority 2007, published 2012)
# Experiment: HCV replicon assay (luciferase reporter, ET cell line)
# Type: cell-based
# Settings: Hepatitis C virus, HCV replicon luciferase activity in ET cells
# Protocol: A cell line, ET (Huh-lucubineo-ET) is used for screening of compounds for inhibiting HCV RNA dependent RNA polymerase. The ET cell line is stably transfected with RNA transcripts harboring a I389 luc-ubi-neo/NS3-3′/ET; replicon with firefly luciferase-ubiquitin-neomycin phosphotransferase fusion protein and EMCV-IRES driven NS3-5B polyprotein containing the cell culture adaptive mutations (E1202G; T1280I; K1846T) (Krieger at al, 2001 and unpublished). The ET cells are grown in DMEM (Dulbeco's Modified Eagle's Medium), supplemented with 10% fetal calf serum, 2 mM Glutamine, Penicillin (100 IU/mL)/Streptomycin (100 μg/mL), 1× nonessential amino acids, and 250 μg/mL G418 (“Geneticin”). They are all available through Life Technologies (Bethesda, Md.). The cells are plated at 0.5−1.0×10^4 cells/well in the 96 well plates and incubated for 24 hrs before adding test compound. The compounds are added to the cells to achieve a final concentration of 0.1 nM to 50 μm and a final DMSO (dimethylsulfoxide) concentration of 0.5%. Luciferase activity is measured 48-72 hours later by adding a lysis buffer and the substrate (Catalog number Glo-lysis buffer E2661 and Bright-Glo luciferase system E2620 Promega, Madison, Wis.). Cells should not be too confluent during the assay. Percent inhibition of replication data is plotted relative to no compound control. Under the same condition, cytotoxicity of the compounds are determined using cell proliferation reagent, WST-1 (Roche, Germany). The compounds showing antiviral activities, but no significant cytotoxicities are chosen to determine EC50 and TC50. For these determinations, a 10 point, 2-fold serial dilution for each compound was used, which spans a concentration range of 1000 fold. EC50 and similarly TC50 values were calculated by fitting % inhibition at each concentration to the following equation:
# % inhibition=100%/[(EC50/[I])^b+1]
# where b is Hill's coefficient.
# % inhibition values at a specific concentration, […] for example, can also be derived from the equation above.
row,Compound,inhibition at 10 µM [%]
1,"O=C(NCc1cccs1)c1nn2c(I)cc(-c3ccccc3)cc2c1I [Compound 119, 3,7-diiodo-5-phenyl-pyrazolo[1,5-a]pyridine-2-carboxylic Acid (thiophen-2-ylmethyl)-amide]",71.5
2,"O=C(NCc1cccs1)c1nn2c(I)cc(-c3ccccc3)cc2c1Br [Compound 120, 3-Bromo-7-iodo-5-phenyl-pyrazolo[1,5-a]pyridine-2-carboxylic Acid (thiophen-2-ylmethyl)-amide]",66.6
3,"O=C(NCc1cccs1)c1nn2c(I)cc(-c3ccccc3)cc2c1Cl [Compound 121, 3-Chloro-7-iodo-5-phenyl-pyrazolo[1,5-a]pyridine-2-carboxylic Acid (thiophen-2-ylmethyl)-amide]",73.9
4,"O=C(NCc1cccs1)c1nn2c(C(F)(F)F)cc(-c3ccccc3)cc2c1Cl [Compound 122, 3-Chloro-5-phenyl-7-trifluoromethyl-pyrazolo[1,5-a]pyridine-2-carboxylic Acid (thiophen-2-ylmethyl)-amide]",94.3
5,"O=C(NCc1ccc(Cl)s1)c1nn2c(C(F)(F)F)cc(-c3ccccc3)cc2c1Cl [Compound 123, 3-Chloro-5-phenyl-7-trifluoromethyl-pyrazolo[1,5-a]pyridine-2-carboxylic Acid (5-chloro-thiophen-2-ylmethyl)-amide]",46.1
6,"O=C(NCc1ccco1)c1cc2cc(-c3ccccc3)cc(I)n2n1 [Compound 124, 7-Iodo-5-phenyl-pyrazolo[1,5-a]pyridine-2-carboxylic Acid (furan-2-ylmethyl)-amide]",54.3
7,"O=C(NCCc1cccs1)c1cc2cc(-c3ccccc3)cc(I)n2n1 [Compound 125, 7-Iodo-5-phenyl-pyrazolo[1,5-a]pyridine-2-carboxylic Acid (2-thiophen-2-yl-ethyl)-amide]",48
8,"O=C(NCc1ccccc1F)c1cc2cc(-c3ccccc3)cc(I)n2n1 [Compound 128, 7-Iodo-5-phenyl-pyrazolo[1,5-a]pyridine-2-carboxylic Acid 2-fluoro-benzylamide]",65.2
9,"O=C(NCc1ccccc1)c1cc2cc(-c3ccccc3)cc(I)n2n1 [Compound 129, 7-Iodo-5-phenyl-pyrazolo[1,5-a]pyridine-2-carboxylic Acid benzylamide]",43
10,"O=C(NCCc1ccccc1)c1cc2cc(-c3ccccc3)cc(I)n2n1 [Compound 130, 7-Iodo-5-phenyl-pyrazolo[1,5-a]pyridine-2-carboxylic Acid phenethyl-amide]",32.3
11,"O=C(NCC1CCCO1)c1cc2cc(-c3ccccc3)cc(I)n2n1 (centres unmarked) [Compound 131, 7-Iodo-5-phenyl-pyrazolo[1,5-a]pyridine-2-carboxylic Acid (tetrahydro-furan-2-ylmethyl)-amide]",49.2
12,"O=C(NCc1cccs1)c1cc2cc(-c3ccco3)cc(C(F)(F)Cl)n2n1 [Compound 133, 7-(Chloro-difluoro-methyl)-5-furan-2-yl-pyrazolo[1,5-a]pyridine-2-carboxylic Acid (thiophen-2-ylmethyl)-amide]",99.8
13,"O=C(NCc1cccs1)c1cn2cc(-c3ccccc3)cc(C(F)(F)F)c2n1 [Compound 137, 6-Phenyl-8-trifluoromethyl-imidazo[1,2-a]pyridine-2-carboxylic Acid (thiophen-2-ylmethyl)-amide]",63
14,"O=C(NCc1cccs1)c1cn2cc(-c3ccco3)cc(C(F)(F)F)c2n1 [Compound 138, 6-Furan-2-yl-8-trifluoromethyl-imidazo[1,2-a]pyridine-2-carboxylic Acid (thiophen-2-ylmethyl)-amide]",92.1
15,"O=C(NCc1cccs1)c1nc2c(C(F)(F)F)cc(-c3ccccc3)cn2c1Br [Compound 139, 3-Bromo-6-phenyl-8-trifluoromethyl-imidazo[1,2-a]pyridine-2-carboxylic Acid (thiophen-2-ylmethyl)-amide]",97.9
16,"O=C(NCc1cccs1)c1cc2cc(-c3ccco3)cc(Cl)n2n1 [Compound 145, 7-Chloro-5-furan-2-yl-pyrazolo[1,5-a]pyridine-2-carboxylic Acid (thiophen-2-ylmethyl)-amide]",49.8

row,Compound,inhibition at 10 µM [%]
1,"CN(Cc1cccs1)C(=O)c1cn2cc(-c3ccco3)cc(C(F)(F)F)c2n1 [Compound 146, 6-Furan-2-yl-8-trifluoromethylimidazo[1,2-a]pyridine-2-carboxylic Acid Methyl-thiophen-2-ylmethyl-amide]",35.1
2,"CN(Cc1cccs1)C(=O)c1cc2cc(-c3ccccc3)cc(C(F)(F)F)n2n1 [Compound 147, 5-phenyl-7-trifluoromethyl-pyrazolo[1,5-a]pyridine-2-carboxylic Acid methyl-thiophen-2-ylmethyl-amide]",26.8
3,"O=C(NCc1cccs1)c1cc2cc(-c3ccccc3)cc(N3CCOCC3)n2n1 [Compound 148, 7-Morpholin-4-yl-5-phenyl-pyrazolo[1,5-a]pyridine-2-carboxylic Acid (thiophen-2-ylmethyl)-amide]",27.7
4,"CN(C)c1cc(-c2ccccc2)cc2cc(C(=O)NCc3cccs3)nn12 [Compound 150, 7-dimethylamino-5-phenyl-pyrazolo[1,5-a]pyridine-2-carboxylic Acid (thiophen-2-ylmethyl)-amide]",43.5
5,"O=C(NCc1cccs1)c1nc2c(C(F)(F)F)cc(-c3ccco3)cn2c1Cl [Compound 152, 3-Chloro-6-furan-2-yl-8-trifluoromethyl-imidazo[1,2-a]pyridine-2-carboxylic acid (thiophen-2-ylmethyl)-amide]",92.5
6,"O=C(NCc1cccs1)c1cc2cc(-c3ccccc3)cc(NCCO)n2n1 [Compound 154, 7-(2-Hydroxy-ethylamino)-5-phenyl-pyrazolo[1,5-a]pyridine-2-carboxylic acid (thiophen-2-ylmethyl)-amide]",58.8
7,"Cc1c(C(=O)NCc2cccs2)nc2c(C(F)(F)F)cc(-c3ccco3)cn12 [Compound 156, 6-Furan-2-yl-3-methyl-8-trifluoromethyl-imidazo[1,2-a]pyridine-2-carboxylic acid (thiophen-2-ylmethyl)-amide]",89.3
8,"O=C(NCc1cccs1)c1nc2c(C(F)(F)F)cc(-c3ccoc3)cn2c1Cl [Compound 157, 3-Chloro-6-furan-3-yl-8-trifluoromethyl-imidazo[1,2-a]pyridine-2-carboxylic acid (thiophen-2-ylmethyl)-amide]",97.8
9,"O=C(NCc1ccco1)c1nc2c(C(F)(F)F)cc(-c3ccco3)cn2c1Cl [Compound 158, 3-Chloro-6-furan-2-yl-8-trifluoromethyl-imidazo[1,2-a]pyridine-2-carboxylic acid (furan-2-ylmethyl)-amide]",88.5
10,"O=C(NCc1ccoc1)c1nc2c(C(F)(F)F)cc(-c3ccco3)cn2c1Cl [Compound 159, 3-Chloro-6-furan-2-yl-8-trifluoromethyl-imidazo[1,2-a]pyridine-2-carboxylic acid (furan-3-ylmethyl)-amide]",94.8
11,"O=C(NCc1cccs1)c1nc2c(C(F)(F)F)cc(-c3ccsc3)cn2c1Cl [Compound 160, 3-Chloro-6-thiophen-3-yl-8-trifluoromethyl-imidazo[1,2-a]pyridine-2-carboxylic acid (thiophen-2-ylmethyl)-amide]",97.3
12,"CC(NC(=O)c1nc2c(C(F)(F)F)cc(-c3ccco3)cn2c1Cl)c1cccs1 (centres unmarked) [Compound 162, 3-Chloro-6-furan-2-yl-8-trifluoromethyl-imidazo[1,2-a]pyridine-2-carboxylic acid (1-thiophen-2-yl-ethyl)-amide]",44.2
13,"O=C(NCc1ccccn1)c1nc2c(C(F)(F)F)cc(-c3ccco3)cn2c1Cl [Compound 163, 3-Chloro-6-furan-2-yl-8-trifluoromethyl-imidazo[1,2-a]pyridine-2-carboxylic acid (pyridin-2-ylmethyl)-amide]",95.4
14,"O=C(NCc1cccnc1)c1nc2c(C(F)(F)F)cc(-c3ccco3)cn2c1Cl [Compound 164, 3-Chloro-6-furan-2-yl-8-trifluoromethyl-imidazo[1,2-a]pyridine-2-carboxylic acid (pyridin-3-ylmethyl)-amide]",70.1
15,"COC(=O)C(NC(=O)c1nc2c(C(F)(F)F)cc(-c3ccco3)cn2c1Cl)c1cccs1 (centres unmarked) [Compound 166, [(3-Chloro-6-furan-2-yl-8-trifluoromethyl-imidazo[1,2-a]pyridine-2-carbonyl)-amino]-thiophen-2-yl-acetic acid methyl ester]",49.1
16,"O=C(NCC1CC1)c1nc2c(C(F)(F)F)cc(-c3ccco3)cn2c1Cl [Compound 169, 3-Chloro-6-furan-2-yl-8-trifluoromethyl-imidazo[1,2-a]pyridine-2-carboxylic acid cyclopropylmethyl-amide]",50.3
